What all share (format): cell-based
One test concerns the target T1, M3 muscarinic receptor (Homo sapiens, UniProt P20309).
T1 construct: expressed in transfected cells; host or cells: CHO (M3-CHO)
Kind of test: Functional mobilization of intracellular calcium (FLIPR), M3-CHO cells. Conditions: for Emax: 100% efficacy = maximum response obtained with the Carbachol control; for M3 Activity: M3-CHO cells, calcium mobilization (FLIPR). In short, it runs like this:
(§1)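 CHO cells expressing human M1–M4 receptors loaded with Fluo-3 AM or Calcium 3 dye (1 mM probenecid, pH 7.4); 0.5% DMSO final. Agonist mode: compound added directly; antagonist mode: 15 min pre-incubation or co-application, then carbachol at EC80. Fluorescence read 60 s on FLIPR; efficacy relative to carbachol maximum.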

The target in another test is T2, M2 muscarinic receptor (Homo sapiens, UniProt P08172).
T2 construct: expressed in transfected cells; host or cells: CHO (M2-CHO)
T2 sequence (P08172 1-466): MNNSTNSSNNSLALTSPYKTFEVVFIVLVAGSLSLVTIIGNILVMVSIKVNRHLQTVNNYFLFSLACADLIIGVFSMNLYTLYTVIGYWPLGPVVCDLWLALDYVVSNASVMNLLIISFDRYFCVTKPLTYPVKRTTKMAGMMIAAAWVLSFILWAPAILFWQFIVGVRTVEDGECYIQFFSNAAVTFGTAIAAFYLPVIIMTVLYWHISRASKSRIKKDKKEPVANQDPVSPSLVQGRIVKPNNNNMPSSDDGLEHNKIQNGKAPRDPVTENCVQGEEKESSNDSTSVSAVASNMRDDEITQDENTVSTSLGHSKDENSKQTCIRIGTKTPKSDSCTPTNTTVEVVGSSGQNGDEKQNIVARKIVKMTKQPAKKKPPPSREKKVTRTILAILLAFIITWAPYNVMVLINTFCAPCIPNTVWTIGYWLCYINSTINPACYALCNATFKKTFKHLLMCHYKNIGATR
Kind of test: Functional mobilization of intracellular calcium (FLIPR), M2-CHO cells. Conditions: for Emax: 100% efficacy = maximum response obtained with the Carbachol control; for M2 Activity: M2-CHO cells, calcium mobilization (FLIPR). An outline of the steps:
as §1

In another test the target is T3, M4 muscarinic receptor (Homo sapiens, UniProt P08173).
T3 construct: expressed in transfected cells; host or cells: CHO (M4-CHO)
T3 sequence (P08173 1-479): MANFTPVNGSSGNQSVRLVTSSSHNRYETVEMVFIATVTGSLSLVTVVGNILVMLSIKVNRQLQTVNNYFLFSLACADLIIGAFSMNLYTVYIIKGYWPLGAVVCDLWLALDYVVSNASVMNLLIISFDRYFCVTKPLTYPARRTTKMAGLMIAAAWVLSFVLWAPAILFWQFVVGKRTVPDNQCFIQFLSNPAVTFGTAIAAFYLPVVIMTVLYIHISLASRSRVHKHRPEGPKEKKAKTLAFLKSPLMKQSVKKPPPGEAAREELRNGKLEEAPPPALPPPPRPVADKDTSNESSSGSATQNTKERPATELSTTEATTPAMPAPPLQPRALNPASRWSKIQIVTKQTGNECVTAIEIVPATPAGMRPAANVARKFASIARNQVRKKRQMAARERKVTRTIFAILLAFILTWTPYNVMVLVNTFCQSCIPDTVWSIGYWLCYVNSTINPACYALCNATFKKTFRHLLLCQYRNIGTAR
Kind of test: Functional mobilization of intracellular calcium (FLIPR), M4-CHO cells. Particulars: for Emax: 100% efficacy = maximum response obtained with the Carbachol control; for M4 Activity: M4-CHO cells, calcium mobilization (FLIPR). In short, it runs like this: as §1

The target of a further test is T4, M1 muscarinic receptor (Homo sapiens, UniProt P11229).
T4 construct: expressed in transfected cells; host or cells: CHO (M1-CHO)
T4 sequence (P11229 1-460): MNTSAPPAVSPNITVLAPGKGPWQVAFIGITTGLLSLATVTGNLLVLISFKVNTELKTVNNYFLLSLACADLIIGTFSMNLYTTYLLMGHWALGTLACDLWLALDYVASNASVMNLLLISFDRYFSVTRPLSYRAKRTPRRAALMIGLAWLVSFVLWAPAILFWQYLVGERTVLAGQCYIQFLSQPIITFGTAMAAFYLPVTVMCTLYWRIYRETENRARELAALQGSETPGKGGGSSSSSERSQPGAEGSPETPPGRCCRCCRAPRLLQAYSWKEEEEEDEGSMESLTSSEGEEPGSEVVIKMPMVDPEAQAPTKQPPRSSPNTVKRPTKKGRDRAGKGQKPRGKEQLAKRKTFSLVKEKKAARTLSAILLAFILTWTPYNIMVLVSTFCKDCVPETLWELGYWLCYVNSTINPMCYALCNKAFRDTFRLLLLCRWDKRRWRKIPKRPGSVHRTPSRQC
Briefly: Functional mobilization of intracellular calcium (FLIPR), M1-CHO cells. Particulars: for Emax: 100% efficacy = maximum response obtained with the Carbachol control; for M1 Activity: M1-CHO cells, calcium mobilization (FLIPR). An outline of the steps: as §1

Structures are written as SMILES.

T1 sequence (P20309 whole entry): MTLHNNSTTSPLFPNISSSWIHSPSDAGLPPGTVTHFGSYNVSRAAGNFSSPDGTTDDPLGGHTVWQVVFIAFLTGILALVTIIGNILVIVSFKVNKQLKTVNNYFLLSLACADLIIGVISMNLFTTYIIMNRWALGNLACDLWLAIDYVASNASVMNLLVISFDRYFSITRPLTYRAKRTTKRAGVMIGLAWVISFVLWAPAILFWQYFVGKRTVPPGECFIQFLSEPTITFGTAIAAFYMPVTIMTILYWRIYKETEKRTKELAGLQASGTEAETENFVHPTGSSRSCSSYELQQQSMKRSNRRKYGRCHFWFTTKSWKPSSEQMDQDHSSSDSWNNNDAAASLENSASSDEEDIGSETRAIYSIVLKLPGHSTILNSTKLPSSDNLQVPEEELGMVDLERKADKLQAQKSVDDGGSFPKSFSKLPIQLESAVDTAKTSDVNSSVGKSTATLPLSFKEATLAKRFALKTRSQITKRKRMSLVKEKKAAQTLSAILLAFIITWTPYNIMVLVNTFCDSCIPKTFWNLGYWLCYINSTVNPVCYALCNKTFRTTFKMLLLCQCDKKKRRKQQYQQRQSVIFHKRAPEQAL

In the case of `FC(F)(F)Oc1ccccc1C1CCN([C@H]2C[C@H]3CC[C@H]2C3)CC1` [Compound 183], on M3 muscarinic receptor, the maximum response (Emax) was less than 25% and the “M3 Activity” value is reported as “+ (activity was measured to be greater than 5.0 μM)”. Also, at M2 muscarinic receptor, the Emax was less than 25% and the “M2 Activity” value is “+ (activity was measured to be greater than 5.0 μM)”. Further, at M4 muscarinic receptor, the Emax is 25 to 100% and the “M4 Activity” value is recorded as “+++ (activity was measured to be less than 1.0 μM)”. Also, at M1 muscarinic receptor, the Emax fell in the range of 25 to 100% and the “M1 Activity” value is listed as “+ (activity was measured to be greater than 5.0 μM)”.

With `COc1ccc(-c2ccc(C(=O)NCCCO)cc2)cc1C1CCN(C2CCOCC2)CC1` [Compound 184], at M3 muscarinic receptor, the maximum response (Emax) was less than 25% and the “M3 Activity” value was “+ (activity was measured to be greater than 5.0 μM)”. For the same compound, on M2 muscarinic receptor, the maximal effect (Emax) is less than 25% and the “M2 Activity” value is recorded as “+ (activity was measured to be greater than 5.0 μM)”. At M4 muscarinic receptor, the Emax was less than 25% and the “M4 Activity” value is “+ (activity was measured to be greater than 5.0 μM)”. At M1 muscarinic receptor, the Emax is less than 25% and the “M1 Activity” value is “+ (activity was measured to be greater than 5.0 μM)”.

For `COc1ccc(C)cc1C1CCN([C@H]2CC[C@H]3CC[C@H]2C3)CC1` [Compound 185], on M3 muscarinic receptor, the maximal effect (Emax) is less than 25% and the “M3 Activity” value is “+ (activity was measured to be greater than 5.0 μM)”. At M2 muscarinic receptor, the maximal effect (Emax) fell in the range of 25 to 100% and the “M2 Activity” value is listed as “+ (activity was measured to be greater than 5.0 μM)”. On M4 muscarinic receptor, the maximal effect (Emax) lay in the range of 25 to 100% and the “M4 Activity” value was “+++ (activity was measured to be less than 1.0 μM)”. At M1 muscarinic receptor, the Emax was 25 to 100% and the “M1 Activity” value was “++ (activity was measured to be from 1.0 μM to 5.0 μM)”.

Take `COc1ccc(Br)cc1C1CCN([C@@H]2C[C@@H]3CC[C@H]2C3)CC1` [Compound 187, 1-((1S,2R,4R)-bicyclo[2.2.1]heptan-2-yl)-4-(5-bromo-2-methoxyphenyl)piperidine]: on M3 muscarinic receptor, the Emax was less than 25% and the “M3 Activity” value was “+ (activity was measured to be greater than 5.0 μM)”. In addition, at M2 muscarinic receptor, the Emax fell in the range of 25 to 100% and the “M2 Activity” value was “++ (activity was measured to be from 1.0 μM to 5.0 μM)”. Further, on M4 muscarinic receptor, the Emax is 25 to 100% and the “M4 Activity” value is reported as “+++ (activity was measured to be less than 1.0 μM)”. Moreover, on M1 muscarinic receptor, the Emax lay in the range of 25 to 100% and the “M1 Activity” value is listed as “+++ (activity was measured to be less than 1.0 μM)”.

Regarding `Cc1ccc(C(=O)COc2ccccc2C2CCN([C@H]3C[C@H]4CC[C@H]3C4)CC2)cc1` [Compound 188], on M3 muscarinic receptor, the Emax was less than 25% and the “M3 Activity” value is “+ (activity was measured to be greater than 5.0 μM)”. Further, on M2 muscarinic receptor, the maximal effect (Emax) lay within 25 to 100% and the “M2 Activity” value is recorded as “+ (activity was measured to be greater than 5.0 μM)”. Moreover, at M4 muscarinic receptor, the maximal effect (Emax) was in the range of 25 to 100% and the “M4 Activity” value is “++ (activity was measured to be from 1.0 μM to 5.0 μM)”. Also, on M1 muscarinic receptor, the maximal response (Emax) was in the range of 25 to 100% and the “M1 Activity” value is on record as “+ (activity was measured to be greater than 5.0 μM)”.

`CCOC(=O)N1CCC(CN2CCC(O)(c3cc(F)ccc3OC)CC2)CC1` [Compound 189]: on M3 muscarinic receptor, the Emax is less than 25% and the “M3 Activity” value is given as “+ (activity was measured to be greater than 5.0 μM)”. For the same compound, on M2 muscarinic receptor, the Emax was less than 25% and the “M2 Activity” value is given as “+ (activity was measured to be greater than 5.0 μM)”. Further, on M4 muscarinic receptor, the Emax lay within 25 to 100% and the “M4 Activity” value is on record as “+++ (activity was measured to be less than 1.0 μM)”. Besides, at M1 muscarinic receptor, the maximal effect (Emax) fell in the range of 25 to 100% and the “M1 Activity” value is on record as “+++ (activity was measured to be less than 1.0 μM)”.

As to `COc1ccc(-c2ccc(CC#N)cc2)cc1C1CCN(C2C[C@H]3CC[C@H]2C3)CC1` (stereo partly drawn) [Compound 190], at M3 muscarinic receptor, the Emax is less than 25% and the “M3 Activity” value was “+ (activity was measured to be greater than 5.0 μM)”. For the same compound, at M2 muscarinic receptor, the maximal effect (Emax) is less than 25% and the “M2 Activity” value is “+ (activity was measured to be greater than 5.0 μM)”. Also, at M4 muscarinic receptor, the Emax was 25 to 100% and the “M4 Activity” value is “+ (activity was measured to be greater than 5.0 μM)”. At M1 muscarinic receptor, the Emax was less than 25% and the “M1 Activity” value was “+ (activity was measured to be greater than 5.0 μM)”.

With `COc1ccc(-c2ccc(C(C)(C)C#N)cc2)cc1C1CCN(C2CCOCC2)CC1` [Compound 192], on M3 muscarinic receptor, the maximal response (Emax) is less than 25% and the “M3 Activity” value is “+ (activity was measured to be greater than 5.0 μM)”. In addition, at M2 muscarinic receptor, the Emax is less than 25% and the “M2 Activity” value is on record as “+ (activity was measured to be greater than 5.0 μM)”. For the same compound, at M4 muscarinic receptor, the Emax was in the range of 25 to 100% and the “M4 Activity” value is on record as “+ (activity was measured to be greater than 5.0 μM)”. Moreover, on M1 muscarinic receptor, the Emax lay in the range of 25 to 100% and the “M1 Activity” value is “+ (activity was measured to be greater than 5.0 μM)”.

Take `COc1ccc(F)cc1C1CCN(C2CCOCC2)CC1` [Compound 193]: on M3 muscarinic receptor, the maximal effect (Emax) was less than 25% and the “M3 Activity” value is on record as “+ (activity was measured to be greater than 5.0 μM)”. Besides, on M2 muscarinic receptor, the Emax is 25 to 100% and the “M2 Activity” value was “+ (activity was measured to be greater than 5.0 μM)”. Also, at M4 muscarinic receptor, the Emax lay within 25 to 100% and the “M4 Activity” value is recorded as “+++ (activity was measured to be less than 1.0 μM)”. Besides, on M1 muscarinic receptor, the Emax was in the range of 25 to 100% and the “M1 Activity” value was “++ (activity was measured to be from 1.0 μM to 5.0 μM)”.

For the compound `c1ccc(C2CCN([C@H]3C[C@H]4CC[C@H]3C4)CC2)c(-c2ccc3c(c2)OCO3)c1` [Compound 195], at M3 muscarinic receptor, the maximal effect (Emax) is less than 25% and the “M3 Activity” value is “+ (activity was measured to be greater than 5.0 μM)”. Moreover, on M2 muscarinic receptor, the maximal effect (Emax) is less than 25% and the “M2 Activity” value is recorded as “+ (activity was measured to be greater than 5.0 μM)”. Further, on M4 muscarinic receptor, the Emax lay in the range of 25 to 100% and the “M4 Activity” value is “+++ (activity was measured to be less than 1.0 μM)”. Besides, at M1 muscarinic receptor, the maximum response (Emax) was in the range of 25 to 100% and the “M1 Activity” value is “+ (activity was measured to be greater than 5.0 μM)”.

On to `CNC(=O)c1ccc(-c2ccc(OC)c(C3CCN(C4CC5CCC(C5)C4)CC3)c2)cc1` (stereo not drawn) [Compound 196], for which, on M3 muscarinic receptor, the maximum response (Emax) is less than 25% and the “M3 Activity” value is listed as “+ (activity was measured to be greater than 5.0 μM)”. At M2 muscarinic receptor, the maximum response (Emax) was less than 25% and the “M2 Activity” value is listed as “+ (activity was measured to be greater than 5.0 μM)”. On M4 muscarinic receptor, the Emax lay in the range of 25 to 100% and the “M4 Activity” value was “+++ (activity was measured to be less than 1.0 μM)”. At M1 muscarinic receptor, the maximum response (Emax) is less than 25% and the “M1 Activity” value is “+ (activity was measured to be greater than 5.0 μM)”.

As to `COc1ccccc1C1(O)CCN([C@H]2C[C@H]3CC[C@H]2C3)CC1O` (stereo partly drawn) [Compound 197], at M3 muscarinic receptor, the maximum response (Emax) was less than 25% and the “M3 Activity” value was “+ (activity was measured to be greater than 5.0 μM)”. Besides, on M2 muscarinic receptor, the Emax is less than 25% and the “M2 Activity” value is reported as “+ (activity was measured to be greater than 5.0 μM)”. In addition, at M4 muscarinic receptor, the Emax fell in the range of 25 to 100% and the “M4 Activity” value was “+ (activity was measured to be greater than 5.0 μM)”. Moreover, on M1 muscarinic receptor, the maximal effect (Emax) is less than 25% and the “M1 Activity” value is recorded as “+ (activity was measured to be greater than 5.0 μM)”.
